“Also recorded” adds a separate entry of the source. Where two headings read alike, the source gives them in different places.
Assays:
APPOSK mice [1] = test: Morris water maze behavioral test (spatial reference memory, cognitive function) in Alzheimer's disease model mice; assay type: in vivo, mouse; settings: for Cognitive function (Morris water maze): transnasal
Excerpt: Eleven-month-old male APPOSK mice (Tomiyama et al. J Neurosci. 2010; 30: 4845-56) were provided. The body weight of each of the APPOSK mice was about 30 g. Sixty APPOSK mice were divided into five groups A to E each including 12 mice. Separately, 12 wild-type mice (non-Tg littermate) of the same month old were provided. The APPOSK mice were amyloid precursor protein (APP) transgenic mice (Alzheimer's disease models), and had accumulation of amyloid-β (Aβ) protein.
For oral administration, an oral sound for rodents was used; for transnasal administration, pipetman (white tip) was used; and for subcutaneous administration, an injection syringe was used. All of these administrations were carried out under non-anesthesia.
The behavioral test was carrying out by determining the spatial reference memory of each of the mice using a Morris water maze in accordance with the method described in Umeda et al. Brain 2016; 139: 1568-86.
Thirteen-month-age (13 mo) individuals of the APPOSK mice shown in Test Example 1 were used.

APPOSK mice [2] = test: Liver enzymes AST (GOT) and ALT (GPT) in serum (hepatic dysfunction); assay type: in vivo, mouse; settings: for AST level (in words): transnasal
Excerpt: Blood was collected from each of the mice after the completion of the behavioral test, and then serum was separated from the blood to prepare a serum sample.

Aβ oligomers = target: T1, Aβ oligomers (Homo sapiens, UniProt P05067, DEL693-693); assay type: in vivo, mouse; settings: APPOSK mice, transnasal, every day for 1 month
T1 construct: had accumulation of amyloid-β (Aβ) protein; from tissue; host or cells: brain (hippocampus) of APPOSK transgenic mice
Excerpt: (§1) Each of Aβ oligomers (Aβ oligomers have been believed to cause the phosphorylation of tau and the decrease in synaptophysin), synaptophysin (a marker protein for a synapse) and phosphorylated tau was stained by an immunohistochemical staining method in accordance with the procedure described in Umeda et al. Brain 2016; 139: 1568-86. For the staining of the Aβ oligomers, 11A1 antibody (Immuno-Biological Laboratories Co, Ltd.) was used; for the staining of synaptophysin, SVP-38 antibody (Sigma) was used; and for the staining of phosphorylated tau, mouse monoclonal PHF-1 antibody (an anti-p-Ser396/404-tau antibody, provided by Peter Davies, Ph. d., Albert Einstein College of Medicine). After the staining, each of the Aβ oligomers, synaptophysin and phosphorylated tau was quantified using NIH image-J.

[3] = system: Tauopathy model mice (Tau784); test: Morris water maze behavioral test (cognitive function) in tauopathy model mice; assay type: in vivo, mouse; settings: Tau784 mice 14-15 mo, transnasal, every day for 1 month
Excerpt: Tauopathy model mice (Umeda T et al., Am. J. Pathol. 183, 211-225, 2013) were provided, 14- to 15-month-old individuals of the model mice were used as subjects of administration.

Aβ42 = target: T2, Aβ42 (Homo sapiens, UniProt P05067); test: Suppression of the toxicity of Aβ42; settings: confirmed by the present inventors
T2 construct: suppress the toxicity of Aβ42

[4] = system: causative protein for a neurodegenerative disease; test: Suppression of the aggregation of a causative protein for a neurodegenerative disease; settings: confirmed by the present inventors
[5] = system: patients having mild to moderate Alzheimer's disease; settings: 119 patients, 52 weeks; 500 mg, increased by 500 mg every 13 weeks to 1000 mg twice per day; cited from earlier work
[6] = system: mitogen (division promoting factor)-activated protein (MAP) kinase; settings: differentiated or undifferentiated human neuroblast SH-SY5Y; cited from earlier work
synaptophysin = test: Immunohistochemical staining and quantification of synaptophysin in hippocampus (SVP-38 antibody); assay type: in vivo, mouse; settings: APPOSK mice; rifampicin 0.05 mg/day transnasal, every day for 1 month; listed as Reference Working Example 3
Excerpt: as §1

phosphorylated tau = test: Immunohistochemical staining and quantification of phosphorylated tau in hippocampus (PHF-1 antibody); assay type: in vivo, mouse; settings: APPOSK mice; rifampicin 0.05 mg/day transnasal, every day for 1 month; listed as Reference Working Example 3
Excerpt: as §1

[7] = system: α-synuclein transgenic (αSyn-Tg) mice each having an A53T mutation; test: Morris water maze behavioral test (cognitive function) in synucleinopathy model mice; assay type: in vivo, mouse; settings: αSyn-Tg 6 mo mice (DLB model); rifampicin 0.1 mg/day transnasal, every day for 1 month; listed as Reference Working Example 5
Method: As synucleinopathy models, α-synuclein transgenic (αSyn-Tg) mice each having an A53T mutation were purchased from Jackson Laboratories. […] Therefore, in this Test Example, αSyn-Tg 6 mo mice and αSyn-Tg 9 mo mice were used as the subjects of administration.
The motor function and the cognitive function of each of the model mice were confirmed by a motor function test and a cognitive function test as mentioned below. The motor function test was carried out using a rotarod. Each of the mice was placed on a rotor which could rotate at a speed of 5 rpm (5 rotations per minute), was then subjected to such a training that the mouse was allowed to walk on the rotor for 3 minutes, and was then placed on a rotor of which the speed of rotation could increase from 4 rpm to 40 rpm over 4 minutes, and the time (seconds) until the mouse fell off the rotor was measured (when the mouse was turned once while holding on to the rotor, it was deemed that the mouse fell off). The measurement was carried out twice per day, and an average value of the measurement values was determined. The cognitive function test was carried out in accordance with the method described in Umeda et al. Brain 2016; 139: 1568-86 by measuring the spatial reference memory of the mice using a Morris water maze (the cognitive function test in the below-mentioned examples was carried out in the same manner as in this Test Example). […]

Aβ = Aβ (Homo sapiens, UniProt P05067); test: In vitro formation of oligomers of Aβ
tau = test: In vitro formation of oligomers of tau
α-synuclein = α-synuclein (Homo sapiens, UniProt P37840); test: In vitro formation of oligomers of α-synuclein
[8] = system: AD model mouse in which Aβ is accumulated; test: Oral administration to AD model mouse; assay type: in vivo; settings: orally administered
[9] = system: FTD model mouse in which tau is accumulated; test: Oral administration to FTD model mouse; assay type: in vivo; settings: orally administered
[10] = APPOSK mice, serum, rifampicin 0.05 mg/day transnasal, every day for 1 month, Mean ± SEM, n = 11

Compound: Oc1ccc(/C=C/c2cc(O)cc(O)c2)cc1 [resveratrol, 3,5,4′-trihydroxy-trans-stilbene]
- Cognitive function (Morris water maze) (APPOSK mice [1]; APPOSK mice 13 mo, resveratrol 0.02 mg/day, every day for 1 month (Test Example 6)): the cognitive function-improving effect was observed, although the effect was exerted slowly
- Cognitive function (Morris water maze) (APPOSK mice [1]; APPOSK mice 13 mo, resveratrol 0.1 mg/day, every day for 1 month (Test Example 6)): the improvement of cognitive function was observed to a level close to that observed in the wild-type mice
- Cognitive function (Morris water maze) (APPOSK mice [1]; APPOSK mice, resveratrol 0.02 mg/day alone, every day for 1 month (Test Example 3), listed as Reference Example 10): the cognitive function improving tendency was observed; also recorded: a slow cognitive function-improving effect on a neurodegenerative disease was observed
- AST level (APPOSK mice [2]; APPOSK mice (not shown), resveratrol 0.1 mg administered alone): about 86 IU/L
- AST level / liver protection activity (in words) (APPOSK mice [2]; APPOSK mice (not shown), resveratrol 0.1 mg alone, compared with Reference Example 9 (CMC)): the AST level was decreased and a positive liver protection activity was confirmed
- AST level (in words) (APPOSK mice [2]; APPOSK mice, resveratrol 0.02 mg/day alone, every day for 1 month, compared with Reference Example 9 (CMC)): AST was not reduced
- Removal of accumulated Aβ oligomers (immunostaining) (Aβ oligomers; resveratrol 0.02 mg/day alone, listed as Reference Example 10): the effect to remove the accumulated Aβ oligomers was observed, but the level of the effect was smaller than that in Example 1; also recorded: the accumulated Aβ oligomers removing effect was confirmed; also recorded: the significant removal of the accumulated oligomers was observed
- Cognitive function (Morris water maze) ([3]; resveratrol 0.02 mg/day alone, listed as Reference Example 15): the cognitive function improving effect was developed slowly; also recorded: a slow cognitive function-improving effect on a neurodegenerative disease was observed
- Effect to suppress the toxicity of Aβ42 (Aβ42): significantly weaker compared with rifampicin
- Effect to suppress the aggregation of a causative protein for a neurodegenerative disease [4]: weak
- Effectiveness on Alzheimer's disease compared with placebo [5]: the effectiveness of the administration of resveratrol could not been confirmed
- Phosphorylation of MAP kinase [6]: induces the phosphorylation of mitogen (division promoting factor)-activated protein (MAP) kinase

Compound: CO[C@H]1/C=C/O[C@@]2(C)Oc3c(C)c(O)c4c(O)c(c(/C=N/N5CCN(C)CC5)c(O)c4c3C2=O)NC(=O)/C(C)=C\C=C\[C@H](C)[C@H](O)[C@@H](C)[C@@H](O)[C@@H](C)[C@H](OC(C)=O)[C@@H]1C [rifampicin, 3-(4-methylpiperazinyliminomethyl)rifamycin SV]
- Cognitive function (Morris water maze) (APPOSK mice [1]; APPOSK mice, rifampicin 0.02 mg/day alone, every day for 1 month): the cognitive function improving tendency was observed
- Improvement of memory impairment (Morris water maze) (APPOSK mice [1]; APPOSK mice, rifampicin 0.05 mg/day transnasal, every day for 1 month, listed as Reference Working Example 3): the improvement effect was at the same level as that in the wild-type mice; also recorded: the improvement effect was higher than that in the case of oral administration
- ALT (APPOSK mice [2]; [10]): 40 ± 10 IU/L
- AST (APPOSK mice [2]; [10]): 165 ± 32 IU/L
- AST level (in words) (APPOSK mice [2]; APPOSK mice, rifampicin 0.02 mg/day alone, every day for 1 month, listed as Comparative Example 1): the increase in AST level, which indicated the occurrence of adverse side effects, was observed; also recorded: significantly reduced compared with the case of oral administration
- Removal of accumulated Aβ oligomers (immunostaining) (Aβ oligomers; rifampicin 0.02 mg/day alone): the effect to remove the accumulated Aβ oligomers was observed, but the level of the effect was smaller than that in Example 1
- Synaptophysin recovery in the hippocampus (immunostaining) (synaptophysin): the decreased synaptophysin was recovered; also recorded: the same level as that in the wild-type mice; also recorded: the effect was higher than that in the oral administration
- Phosphorylated tau reduction in the hippocampus (immunostaining) (phosphorylated tau): the amount of phosphorylated tau accumulated in the brain was decreased and high
- Cognitive function / memory impairment (Morris water maze) [7]: the improvement of memory impairment was observed from day 1 after the administration; also recorded: the cognitive function was recovered to the same level as that in normal Non-Tg mice
- Cognitive function (Morris water maze) ([3]; rifampicin 0.02 mg/day alone): the cognitive function improving effect was developed slowly
- Inhibition of in vitro formation of oligomers of Aβ (Aβ): can inhibit the in vitro formation of oligomers
- Inhibition of in vitro formation of oligomers of tau (tau): can inhibit the in vitro formation of oligomers
- Inhibition of in vitro formation of oligomers of α-synuclein (α-synuclein): can inhibit the in vitro formation of oligomers
- Cognitive function [8]: can recover the cognitive function of the mouse
- Cognitive function [9]: can recover the cognitive function of the mouse
- Effect to suppress the toxicity of Aβ42 (Aβ42): can completely suppress the toxicity of Aβ42

From patent publication US12521387B2, “Prophylactic or therapeutic drug for neurodegenerative diseases” (Medilabo RFP, Inc., priority 2019, dated 2026)
